Measurements from article PMC6892255, “Identification of a potent small-molecule inhibitor of bacterial DNA repair that potentiates quinolone antibiotic activity in methicillin-resistant Staphylococcus aureus^” (Bioorganic & Medicinal Chemistry, 2019).
“Also recorded” adds a separate entry of the source.

How the values were obtained:
E. coli topoisomerase IV = target: T1, E. coli topoisomerase IV (Escherichia coli, UniProt P0AFI2+P20083); test: Topoisomerase IV supercoiling relaxation assay (pQE80L); assay type: biochemical; settings: at 12.5 µM (compounds)
T1 construct: purchased Inspiralis
Description: 2.1. Biological and biochemical methods […]
(§1) E. coli DNA gyrase supercoiling assay (Inspiralis) was performed according to the manufacturer’s instructions, ensuring a constant concentration of 1% (v/v) DMSO. Samples were separated on a 1% (w/v) agarose gel prepared with Tris/Borate/EDTA (TBE) buffer (1 M Tris-borate, 20 mM EDTA, pH 8.0). Electrophoresis was performed at 100 V until the bromophenol blue dye had run >6 cm to ensure resolution of relaxed and supercoiled DNA.
(§2) The gel was stained with SYBR Safe DNA gel stain (Invitrogen, 1:10,000 dilution in TBE) for 30 min, and visualized on a Syngene Gel Doc system. Band intensity was quantified using ImageJ software and the fraction of supercoiled plasmid was determined as the ratio of the density of the supercoiled band to the total density. Values were background corrected against the no-gyrase control and normalized to DMSO control for dose-response analysis.
E. coli topoisomerase IV supercoiling relaxation assay (Inspiralis) was performed according to the manufacturer’s instructions, ensuring a constant concentration of 1% (v/v) DMSO.
Supercoiled pQE80L was prepared via plasmid purification and used as the substrate for the reaction. Reactions were analyzed as described for DNA gyrase assays. […]

E. coli DNA gyrase = target: T2, E. coli DNA gyrase (Escherichia coli, UniProt P0AES4+P0AES6); test: DNA gyrase supercoiling assay (pBR322); assay type: biochemical; settings: at 12.5 μM (compounds); gel and densitometry
T2 construct: purchased Inspiralis
Description: DNA gyrase produces supercoiled DNA from relaxed and open-coiled DNA, which can be separated via agarose gel electrophoresis. […]
as §1, §2

[1] = tested on: SOS response in JE2 cells; test: SOS reporter assay (GFP under control of the recA promoter); assay type: cell-based, Staphylococcus aureus; settings: for SOS response (normalized GFP fluorescence/cell): JE2 recA-GFP reporter, SOS activated with CFX (10 µM), titration of compound
Description: A SOS reporter system was generated by transformation of JE2 cells with a plasmid containing GFP under control of the recA promoter. Activation of the SOS response in these cells results in expression of GFP which can be monitored by fluorescence intensity. […] IMP-1700 (10) was coupled with N-Boc-ethylenediamine to afford amide 19, followed by removal of the Boc group in 4 M HCl/dioxane and purification using strong cation exchange resin. The resulting free amine 20 was coupled to N-hydroxysuccinimide (NHS)-activated Sepharose resin at 4 °C overnight (Figure 2C), and the remaining NHS sites quenched in Tris buffer. SoluBL21 competent E. coli were transformed with pET28b^+ containing StrepII-tagged AddA and hexahistidine-tagged AddB, and expression induced overnight at 16 °C. […] Beads were washed three times with lysis buffer and bound protein eluted with SDS-PAGE sample buffer, followed by PAGE separation. […]
JE2 transformed with SOS-inducible pCN34 PrecA-gfp reporter plasmid expressing GFP under the control of the recA promoter were grown to late stationary phase at 37 °C in MHB containing kanamycin (90 μg/mL). Stationary phase JE2 culture (1 mL) was centrifuged (17,000 × g, 2 min), the supernatant removed and cells resuspended in assay media (12.5 µM […]
concentration was maintained >12.5 µM and DMSO concentration maintained at 1.5% (v/v).
JE2 culture (20 uL) was added to inhibitor solutions (180 µL) to a final cell density of 4 x 10^7 CFU/mL and samples incubated in a M200-PRO microplate reader (Tecan) at 37 °C with 700 rpm agitation for 17 h. GFP fluorescence intensity and OD600 were measured at 15 min intervals. Measurements were background corrected against no-inocula control and normalized to no-test inhibitor control at mid-exponential growth phase (4.5 h) for dose-response analysis. […]

[2] = tested on: AddAB (StrepII-AddA and His6-AddB); test: Recombinant AddAB pulldown with compound-functionalized Sepharose; assay type: binding; settings: E. coli lysate co-expressing StrepII-AddA and His6-AddB, Western blot
Description: A SOS reporter system was generated by transformation of JE2 cells with a plasmid containing GFP under control of the recA promoter. Activation of the SOS response in these cells results in expression of GFP which can be monitored by fluorescence intensity. […] This decrease is indicative of inhibition of the SOS response during cell death, and consistent with the proposed inhibition of AddAB-mediated DNA repair pathways. Finally, to provide additional evidence that inhibition of the bacterial DNA repair pathway by IMP-1700 (10) occurred through inhibition of AddAB, a target pulldown was conducted. IMP-1700 (10) was coupled with N-Boc-ethylenediamine to afford amide 19, followed by removal of the Boc group in 4 M HCl/dioxane and purification using strong cation exchange resin. The resulting free amine 20 was coupled to N-hydroxysuccinimide (NHS)-activated Sepharose resin at 4 °C overnight (Figure 2C), and the remaining NHS sites quenched in Tris buffer. SoluBL21 competent E. coli were transformed with pET28b^+ containing StrepII-tagged AddA and hexahistidine-tagged AddB, and expression induced overnight at 16 °C. Cells were lysed via sonication and the total lysate incubated with IMP-1700 (10)-functionalized or control Sepharose beads which had been treated with DMSO then Tris-quenched. Beads were washed three times with lysis buffer and bound protein eluted with SDS-PAGE sample buffer, followed by PAGE separation. […]
agar (LA) supplemented with kanamycin (50 μg/mL). Liquid cultures were grown at 37 °C with shaking at 180 r.p.m until an OD600 of 0.5 was reached, at which point cultures were cooled to 16 °C. Protein expression was induced by addition of isopropyl β-D-thiogalactoside (1 mM), followed by incubation for 20 h at 16 °C with shaking. Cells were collected by centrifugation (4,000 × g, 5 min) and stored at -20 °C.
Cells were re-suspended in lysis buffer (50 mM Tris-HCl, 150 mM NaCl, pH 7.5) and lysed on ice by sonication (2 min, 5 s on-off cycle, 40% amplitude) using a Vibra-cell sonicator (Sonics). […]

[3] = tested on: methicillin-resistant S. aureus (MRSA, USA300 JE2); test: Ciprofloxacin (CFX) potentiation in MRSA growth inhibition assay; assay type: cell-based, Staphylococcus aureus; settings: compared to IMP-1700 (10)
Description: 2.1. Biological and biochemical methods
Bacterial strains and culture conditions
Strains utilized in the present study are detailed in Table S1. All strains used were cultivated on Mueller Hinton Agar (MHA) and grown to stationary-phase in Mueller Hinton Broth (MHB) at 37 °C for 16 h, with shaking at 180 r.p.m.
Minimum inhibitory concentration (MIC) assays
MIC assays were performed in 96 well plates and MICs were determined in accordance with the broth microdilution protocol.4 Strains grown to stationary-phase in MHB were adjusted to 5 x 10^5 colony-forming units (CFU)/mL in fresh MHB (100 µL/well) supplemented with DMSO to ensure a constant concentration of 0.5% (v/v) DMSO across all experiments. Where […]
or H2O2 (200 μM). Test compounds were prepared as two-fold serial dilutions. Cells were […]
as the lowest concentration with no visible bacterial growth, and the optical density at 600 nm (OD600) was recorded. OD600 measurements were background corrected against no-inocula control and normalized to DMSO control for dose-response analysis. The EC50 value mean and SEM were calculated from individual EC50 values from three biological replicates. […]

T2 sequence (P0AES4 whole entry, one chain of several): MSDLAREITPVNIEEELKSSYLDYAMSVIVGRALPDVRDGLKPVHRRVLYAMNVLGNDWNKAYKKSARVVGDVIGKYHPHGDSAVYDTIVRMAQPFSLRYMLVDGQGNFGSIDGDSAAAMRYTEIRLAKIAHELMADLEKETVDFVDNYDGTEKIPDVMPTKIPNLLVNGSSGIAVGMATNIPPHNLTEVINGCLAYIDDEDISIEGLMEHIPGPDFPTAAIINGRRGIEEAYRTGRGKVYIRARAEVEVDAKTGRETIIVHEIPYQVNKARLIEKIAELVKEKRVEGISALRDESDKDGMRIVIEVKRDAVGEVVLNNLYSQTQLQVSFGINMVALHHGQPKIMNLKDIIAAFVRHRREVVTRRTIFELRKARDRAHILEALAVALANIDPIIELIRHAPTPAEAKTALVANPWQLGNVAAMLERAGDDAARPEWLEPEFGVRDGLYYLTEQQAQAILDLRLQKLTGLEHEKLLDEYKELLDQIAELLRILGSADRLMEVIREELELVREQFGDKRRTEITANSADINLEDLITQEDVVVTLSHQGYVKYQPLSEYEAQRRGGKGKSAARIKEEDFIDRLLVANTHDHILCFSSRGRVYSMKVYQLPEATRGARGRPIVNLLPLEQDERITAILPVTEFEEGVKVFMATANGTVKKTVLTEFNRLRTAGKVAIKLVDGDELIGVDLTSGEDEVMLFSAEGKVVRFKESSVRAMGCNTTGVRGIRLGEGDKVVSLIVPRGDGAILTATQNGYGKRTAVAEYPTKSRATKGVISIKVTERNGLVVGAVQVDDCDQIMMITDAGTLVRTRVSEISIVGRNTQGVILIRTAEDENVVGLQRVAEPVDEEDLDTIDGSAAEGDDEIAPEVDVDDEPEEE
T1 sequence (P0AFI2 whole entry): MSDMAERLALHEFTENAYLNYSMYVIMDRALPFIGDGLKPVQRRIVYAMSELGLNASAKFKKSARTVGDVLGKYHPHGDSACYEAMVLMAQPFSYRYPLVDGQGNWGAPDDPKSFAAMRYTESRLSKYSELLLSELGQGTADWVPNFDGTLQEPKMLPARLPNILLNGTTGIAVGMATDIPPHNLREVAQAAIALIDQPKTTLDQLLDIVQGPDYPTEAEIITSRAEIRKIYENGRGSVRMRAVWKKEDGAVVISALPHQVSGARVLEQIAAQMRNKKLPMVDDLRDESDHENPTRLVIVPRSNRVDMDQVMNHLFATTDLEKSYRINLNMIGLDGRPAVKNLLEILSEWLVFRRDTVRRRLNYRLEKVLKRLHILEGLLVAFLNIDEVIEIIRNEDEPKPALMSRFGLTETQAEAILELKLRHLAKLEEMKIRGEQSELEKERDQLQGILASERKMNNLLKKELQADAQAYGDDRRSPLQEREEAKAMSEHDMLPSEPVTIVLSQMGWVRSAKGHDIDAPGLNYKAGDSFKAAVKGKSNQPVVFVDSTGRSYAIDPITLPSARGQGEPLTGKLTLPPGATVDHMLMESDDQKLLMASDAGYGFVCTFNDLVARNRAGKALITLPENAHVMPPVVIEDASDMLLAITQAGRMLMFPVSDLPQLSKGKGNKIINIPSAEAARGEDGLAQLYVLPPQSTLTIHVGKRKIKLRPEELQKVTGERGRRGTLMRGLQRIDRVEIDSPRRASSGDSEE
T1 sequence (P20083 whole entry): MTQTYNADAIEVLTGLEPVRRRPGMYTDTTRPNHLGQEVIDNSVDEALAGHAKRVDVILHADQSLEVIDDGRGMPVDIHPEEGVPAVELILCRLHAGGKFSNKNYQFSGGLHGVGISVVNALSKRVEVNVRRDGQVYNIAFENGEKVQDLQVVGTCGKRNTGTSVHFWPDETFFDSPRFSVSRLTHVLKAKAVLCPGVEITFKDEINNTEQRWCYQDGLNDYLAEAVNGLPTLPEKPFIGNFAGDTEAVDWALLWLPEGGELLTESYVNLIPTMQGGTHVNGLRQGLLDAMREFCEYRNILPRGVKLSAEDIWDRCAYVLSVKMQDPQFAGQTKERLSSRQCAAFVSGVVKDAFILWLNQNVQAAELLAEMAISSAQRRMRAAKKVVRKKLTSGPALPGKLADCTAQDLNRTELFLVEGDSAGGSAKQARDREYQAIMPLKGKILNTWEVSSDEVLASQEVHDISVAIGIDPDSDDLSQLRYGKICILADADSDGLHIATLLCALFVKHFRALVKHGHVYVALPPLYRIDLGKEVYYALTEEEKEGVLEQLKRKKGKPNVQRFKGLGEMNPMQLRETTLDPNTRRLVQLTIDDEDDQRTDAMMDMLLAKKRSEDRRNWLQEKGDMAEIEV

| SMILES | Inhibition of topoisomerase IV (E. coli topoisomerase IV) | Activity against DNA gyrase (E. coli DNA gyrase) | Effect on cell number (OD600) in SOS reporter assay ([1]; JE2 recA-GFP reporter with CFX (10 µM)) | SOS response (normalized GFP fluorescence/cell) [1] | Pulldown of AddA and AddB by compound-functionalized Sepharose [2] | fold weaker potentiation of CFX in MRSA growth assays [3] |
| --- | --- | --- | --- | --- | --- | --- |
| O=C(O)c1cn(C2CC2)c2cc(N3CCNCC3)c(F)cc2c1=O [CFX, ciprofloxacin, reference compound] | inhibited | inhibited | decrease in cell number at low micromolar concentrations | increase in normalized GFP fluorescence/cell; also recorded: SOS activation increased |  |  |
| O=C(O)c1cn(C2CC2)c2cc(N3CCN(C(=O)Nc4ccccc4)CC3)c(F)cc2c1=O [Compound 21] |  |  |  | did not inhibit the SOS response; also recorded: SOS activation increased | no interaction; also recorded: did not; also recorded: does not pulldown | ~100 fold |
